The test system of test [1] is amino alcohol dehydrogenase derived from Streptomyces virginiae IFO 12827. The experiment in a line: Coenzyme dependence. In kind it is biochemical.
For test [2], the system named is amino alcohol dehydrogenase obtained in Example 7. Description: Enzyme reaction: conversion of substrates, product analysed by GC, HPLC or GC-MS. In kind it is biochemical, Streptomyces virginiae IFO 12827. The conditions noted are these: 0.5 unit enzyme, 25° C., 48 hours; reductive: 10 mM NADH, 0.2M NH4Cl, pH 8.0; oxidative: 10 mM NAD+, pH 9.0. As to the method: The amino alcohol dehydrogenase (0.5 unit) obtained in Example 7 was added to 2 ml of a mixture containing 5 mM hydroxyacetone, 10 mM NADH, 0.2M NH4Cl, 0.1 M Tris-HCl buffer (pH 8.0), and the resulting reaction mixture was incubated at 25° C. for 48 hours. The product was analyzed by gas chromatography with a FID detector (column, TENAX TA (3.2 mm×1 m); injection and detection temperature, […]; N2 flow rate, 50 ml/min; column temperature, gradient from 150 to 180° C. (5° C./min); retained at 180° C. for 10 min). […] The retention time of 2-amino-1-propanol was completely the same as that of the standard compound.
The same reaction system as used in 1) except for using oxalacetic acid as a substrate in place of hydroxyacetone was incubated at 25° C. for 48 hours. The produced amino acid was converted into an o-phthalaldehyde (OPA) derivative by OPA-derivatization method. The derivative was analyzed by high-performance liquid chromatography (column, CAPCELL PAC C18 AG120 (4.6 mm×25 cm, Shiseido); detection, 340 nm; column temperature, 45° C.; mobile phase flow rate, 1 ml/ min; concentration gradient elution, a) 10 mM sodium phosphate buffer (pH 6.8) to b) acetonitrile:10 mM sodium phosphate buffer (pH 6.8) =2:1).
The amino alcohol dehydrogenase (0.5 unit) was added to a mixture of 2 mM 1-phenethylamine, 10 mM NAD^+ and 0.1, M Tris-HCl buffer (pH 9.0), and the resulting reaction solution was incubated at 25° C. for 48 hours. The reaction solution was adjusted to pH 10.0 with NaOH and extracted with an equivalent volume of ethyl acetate.

For test [3], the target named is T1, alanine dehydrogenase (derived from Bacillus stearothermophilius, Seikagaku Corporation) (Geobacillus stearothermophilus, UniProt P17557).
T1 construct: purchased Seikagaku Corporation
T1 sequence (P17557 whole entry): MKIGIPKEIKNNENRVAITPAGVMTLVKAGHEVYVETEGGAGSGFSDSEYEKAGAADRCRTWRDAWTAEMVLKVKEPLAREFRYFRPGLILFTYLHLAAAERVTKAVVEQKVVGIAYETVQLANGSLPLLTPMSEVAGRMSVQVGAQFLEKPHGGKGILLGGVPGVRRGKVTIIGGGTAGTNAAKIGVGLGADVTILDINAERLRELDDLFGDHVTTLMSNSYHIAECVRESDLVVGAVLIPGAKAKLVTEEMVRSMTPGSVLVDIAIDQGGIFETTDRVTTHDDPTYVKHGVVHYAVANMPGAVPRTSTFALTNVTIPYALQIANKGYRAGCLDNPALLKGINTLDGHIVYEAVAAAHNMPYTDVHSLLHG
Description: Reactivity of commercially available alanine dehydrogenase (NADH at 340 nm). In kind it is biochemical. To be noted: 1 mM NAD+, 10 mM substrate, 0.1 M Tris-HCl pH 8.0, 0.02 unit enzyme, 25° C. As to the method: (§1) Known NAD(H)-dependent amino acid dehydrogenases reportedly act on only keto acids and amino acids as substrates (Experiments of Biochemistry, Vol. 11, ed. by Japan Society of Biochemistry, Amino acid metabolism and biological amine (I) 193-218, J. Org. Chem. 55, 5567, 1990; Fermentation and Industry 40, 301-311, 1982). […] Reactivity of a commercially available alanine dehydrogenase to amino alcohols was examined. Reaction was performed at 25° C. for several min in a reaction solution containing 1 mM NAD^+, 10 mM of each substrate, 0.1 M Tris-HCl buffer (pH 8.0), and 0.02 unit of alanine dehydrogenase (derived from Bacillus stearothermophilius, Seikagaku Corporation). NADH produced was spectroscopically measured at 340 nm.

The subject of test [4] is amino alcohol dehydrogenase derived from Streptomyces virginiae IFO 12827. Description: Substrate specificity, relative activity to various substrates.
Test [5] has the same test system. The experiment in a line: Km values in reductive amination and oxidative deamination. In kind it is biochemical.
Test [6] deals with L-glutamate dehydrogenase derived from microorganism (Toyobo). Description: Reactivity of L-glutamate dehydrogenase derived from microorganism. The test is classed as biochemical. The conditions noted are these: same experiment as Comparison Example 1. The procedure: as §1
The same experiment as Comparison Example 1 was conducted using L-glutamate dehydrogenase derived from microorganism (Toyobo), and that derived from bovine liver (Lifetech Oriental).

Setting [7] is: Substrate (Amines), TABLE 5 printed a fourth time.
Setting [8] is: Substrate (Amines), TABLE 5 printed a second time.
[9] abbreviates: Substrate (Amines), TABLE 5 printed a third time.
The mark [10] stands for this setting: Substrate (Amino alcohols), activity to serinol as 100%, TABLE 3.
Where [11] appears, read: Substrate (Amino alcohols), activity to serinol as 100%, TABLE 3 printed a second time.
Setting [12] is: reductive amination reaction (pH 7.0, phosphate buffer).
Setting [13] is: oxidative deamination reaction (pH 9.0, Tris-HCl buffer).

As for NAD(H), in test [1], the “use as coenzyme / electron acceptor” value is given as “dependent”.
With `CC(=O)CO` [hydroxyacetone], the “conversion by the enzyme” value in test [2] is listed as “production of 2-amino-1-propanol was detected”.
On to `C[C@H](N)C(=O)O` [L-alanine], for which, in test [3], the “enzyme acts on substrate” value is reported as “acted on”.
Regarding `NCc1ccccc1` [benzylamine], the “Relative activity (%)” value is 134% in test [4] (Substrate (Amines), TABLE 5); 134% in test [4] (setting [7]); 134% in test [4] (setting [8]); 134% in test [4] (setting [9]).
For `CCCC(C)N` (centres unmarked) [2-aminopentane], the “Relative activity (%)” value is listed as 252% in test [4] (Substrate (Amines), TABLE 5); 252% in test [4] (setting [7]); 252% in test [4] (setting [8]); 252% in test [4] (setting [9]).
For the molecule `CSCC[C@H](N)CO` [L-(−)-methioninol], the “Relative activity (%)” value in test [4] (setting [10]) and in test [4] (setting [11]) was 85% throughout.
With NADH, the Michaelis constant (Km) in test [5] (setting [12]) came to 22 µM.
Take `CC(C)[C@H](N)CO` [(S)-(+)-2-amino-3-methyl-1-butanol]: the “Relative activity (%)” value in test [4] (setting [10]) and in test [4] (setting [11]) was 43% each time.
On to `CCCCC[C@@H](C)N` [(R)-2-aminoheptane], for which the “Relative activity (%)” value stood at 91% in test [4] (Substrate (Amines), TABLE 5); 91% in test [4] (setting [7]); 91% in test [4] (setting [8]); 91% in test [4] (setting [9]).
Turning to `CCCCCCCCN` [n-octylamine], the “Relative activity (%)” value worked out at 114% in test [4] (Substrate (Amines), TABLE 5); 114% in test [4] (setting [7]); 114% in test [4] (setting [8]); 114% in test [4] (setting [9]).
On to `N[C@H](CO)Cc1ccccc1` [(S)-(−)-2-amino-3-phenyl-1-propanol], for which the “Relative activity (%)” value in test [4] (setting [10]) and in test [4] (setting [11]) was 120% throughout.
In the case of `CCC(N)CC` [3-aminopentane], the “Relative activity (%)” value in test [4] (Substrate (Amines), TABLE 5) is given as 270%; in test [4] (setting [7]), 270%; in test [4] (setting [8]), 270%; in test [4] (setting [9]) it was 270%.
Take `N[C@@H](CCC(=O)O)C(=O)O` [L-glutamic acid]: in test [6], the “enzyme acts on substrate” value is “acted on”.
In the case of `NC(=O)c1ccc[n+]([C@@H]2O[C@H](COP(=O)([O-])OP(=O)(O)OC[C@H]3O[C@@H](n4cnc5c(N)ncnc54)[C@H](O)[C@@H]3O)[C@@H](O)[C@H]2O)c1` [NAD^+], the Km in test [5] (setting [13]) turned out to be 840 µM.
Regarding `NC(CO)CO` [serinol], the Michaelis constant (Km) in test [5] (setting [13]) is 4000 µM. For the same molecule, the “Relative activity (%)” value in test [4] (setting [10]) and in test [4] (setting [11]) was 100% in each case.
On to `O=C(O)CC(=O)C(=O)O` [oxalacetic acid], for which the “conversion by the enzyme” value in test [2] is on record as “peak of the product, aspartic acid was observed”.
As to `C[C@@H](N)c1ccccc1` [(R)-1-phenethylamine], the “Relative activity (%)” value is 127% in test [4] (Substrate (Amines), TABLE 5); 127% in test [4] (setting [7]); 127% in test [4] (setting [8]); 127% in test [4] (setting [9]).
As for `CC(N)CCc1ccccc1` (centres unmarked) [1-methyl-3-phenylpropylamine], the “Relative activity (%)” value in test [4] (Substrate (Amines), TABLE 5) is listed as 152%; in test [4] (setting [7]), 152%; in test [4] (setting [8]) it was 152%; in test [4] (setting [9]), 152%.
Take `CC(C)(N)CO` [2-amino-2-methyl-1-propanol]: the “Relative activity (%)” value in test [4] (setting [10]) and in test [4] (setting [11]) was 115% throughout.
For the molecule `CC[C@@H](C)N` [(R)-2-aminobutane], the “Relative activity (%)” value is given as 127% in test [4] (Substrate (Amines), TABLE 5); 127% in test [4] (setting [7]); 127% in test [4] (setting [8]); 127% in test [4] (setting [9]).
For the molecule `NC1CCCCC1O` (centres unmarked) [2-aminocyclohexanol], the “Relative activity (%)” value in test [4] (setting [10]) and in test [4] (setting [11]) was 113% each time.
`CC(N)c1ccccc1` (centres unmarked) [1-phenethylamine]: the “conversion by the enzyme” value in test [2] is reported as “the enzyme converts amine into ketone”.
For `CCC(N)CO` (single isomer, unassigned; (+)) [(+)-2-amino-1-butanol], the “Relative activity (%)” value in test [4] (setting [10]) and in test [4] (setting [11]) was 109% throughout.
On to `CCCCCCN` [n-hexylamine], for which the “Relative activity (%)” value in test [4] (Substrate (Amines), TABLE 5) came to 173%; in test [4] (setting [7]), 173%; in test [4] (setting [8]), 173%; in test [4] (setting [9]) it was 173%.
For the molecule `CCCCN` [n-butylamine], the “Relative activity (%)” value in test [4] (Substrate (Amines), TABLE 5) is given as 170%; in test [4] (setting [7]) it was 170%; in test [4] (setting [8]), 170%; in test [4] (setting [9]), 170%.
For `CC[C@H](C)[C@H](N)CO` [isoleucinol], the “Relative activity (%)” value in test [4] (setting [10]) and in test [4] (setting [11]) was 113% throughout.
As to `Nc1ncccc1O` [2-amino-3-hydroxypyridine], the “Relative activity (%)” value in test [4] (setting [10]) and in test [4] (setting [11]) was 136% throughout.
In the case of `Cl.N` [NH4Cl], the Michaelis constant (Km) in test [5] (setting [12]) turned out to be 25000 µM.
For the molecule `COS(=O)(=O)[O-].C[n+]1c2ccccc2nc2ccccc21` [PMS, phenazinementasulfate, reference compound], the “use as coenzyme / electron acceptor” value in test [1] is “does not use”.
As for `CC(C)C[C@H](N)CO` [(S)-(+)-leucinol], the “Relative activity (%)” value in test [4] (setting [10]) and in test [4] (setting [11]) was 105% in each case.
With NADP(H), in test [1], the “use as coenzyme / electron acceptor” value is listed as “does not use”.
Consider `CCCC(N)CO` (racemic) [DL-2-amino-1-pentanol], for which the “Relative activity (%)” value in test [4] (setting [10]) and in test [4] (setting [11]) was 103% in each case.

(Values after patent US6432688B1, “Amino alcohol dehydrogenase converts keto alcohol to amino alcohol and amino alcohol to keto alcohol” (Daicel Chemical Industries, Ltd., priority 1999, dated 2002).)
